Test results published in patent publication US20230010299A1, “HETEROCYCLIC TRPML1 AGONISTS” (LIBRA THERAPEUTICS, INC., priority 2019, published 2023).

Key:
[1] = target: T1, TRPML1 (Homo sapiens, UniProt Q9GZU1); assay: TRPML1 automated patch-clamp (QPatch 16X); format: cell-based; details: HEK T-REx/GcaMP6f/TRPML1 cells, current with compound/current in vehicle, extracellular pH 4.6
T1 construct: expressed in transfected cells
Experimental: TRPML1—Automated Patch-Clamp
HEK T-REx/GcaMP6f/TRPML1 cells were cultured in DMEM High Glucose (Lonza BioWhittaker cat. BE12-604F/U1; 500 mL) supplemented with Fetal Bovine Serum TET-FREE (Euroclone cat. EC S0182L; 50 mL, Penicillin-Streptomycin (BioWhittaker, cat. DE17-602E; 5 mL of 100× Solution), G418 (Sigma, cat. G8168; 0.25 mg/ml) and Zeocyn (InvivoGen, cat. ant-zn-1; 50 μg/ml).
HEK T-REx/GcaMP6f/TRPML1 cells were seeded 48 or 72 hours before experiment, at a concentration of 8*10^6/4*10^6 cells onto a T225 flask. Just before the experiments, cells were washed twice with D-PBS w/o Ca^2+/Mg^2+ (Euroclone cat. ECB4004L) and detached from the flask with trypsin-EDTA (Sigma cat. T4174; diluted 1/10). Cells were then re-suspended in the suspension solution: 25 mL EX-CELL ACF CHO medium(Sigma cat. C5467); 0.625 mL HEPES (Sigma cat. H0887); 0.25 mL of 100× Penicillin/Streptomycin (Euroclone cat. ECB3001D), 0.1 mL of Soybean Trypsin Inhibitor 10 mg/mL (Sigma cat. T6522) and placed on the QPatch 16X.
Dilution from stock were prepared just before the experiments in the extracellular solution (0.25% final DMSO concentration). DMSO solution was obtained from AppliChem (cat. A3672)
Patch Clamp Solutions: • Intracellular solution (mM): 120 CsMeSO3, 4 NaCl, 2 MgCl2, 10 EGTA, 20 HEPES, 2 Mg-ATP (pH 7.2 with CsOH). • Extracellular solution (mM): 140 NaGluconate, 5 KCl, 1 MgCl2, 2 CaCl2), 10 Glucose, 10 MES (pH 4.6 with HCl).
Patch Clamp Analysis—QPatch 16X
For the voltage clamp experiments on TRPML1, data were sampled at 5 KHz. After establishment of the seal and the passage in the whole cell configuration, the cells were held at −20 mV and the TRPML1 current was evoked using the voltage protocol illustrated in FIG. 2, applied every 5 sec. (50 ms at −20 mV; 20 ms at −120 mV, 1000 ms ramp from −120 to […]; 20 ms at +40 mV, and back to −20 mV); in the absence (vehicle period, i.e. 0.25% DMSO) and in the presence of increasing concentrations (3) of the compound under investigation.
Agonists: For data collection, the Sophion proprietary software was used and the analysis was performed off-line using Excel and GraphPad Prism (V 8.00). Results are reported in Table 6, expressed as TRPML1 current fold increase evoked by the compound under investigation (i.e. current in the presence of the compound/current in vehicle).

[2] = target: T1, TRPML1; assay: Cellular TRPML1 assay (FLIPR TETRA, GCaMP6f calcium read-out); format: cell-based; details: HEK T-REx/GCaMP6f/TRPML1 cells; Ca2+ response over 300 s, normalized to ML-SA1 50 μM; Ca2+ free or Optimem condition not given; read-out: Ec50 (Activity of TRPML1 agonists)
Procedure, shortened: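 HEK T-REx cells stably expressing TRPML1 and GCaMP6f, assayed 24 h after seeding in Ca2+-free Tyrode's (pH 7.4) or Opti-MEM. Compounds injected on FLIPR Tetra (0.5% DMSO) in dose-response from 100 μM (1:2) or 50 μM (1:3.16); fluorescence kinetics 300 s, referenced to 50 μM ML-SA1 stimulator control.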

T1 sequence (Q9GZU1 whole entry): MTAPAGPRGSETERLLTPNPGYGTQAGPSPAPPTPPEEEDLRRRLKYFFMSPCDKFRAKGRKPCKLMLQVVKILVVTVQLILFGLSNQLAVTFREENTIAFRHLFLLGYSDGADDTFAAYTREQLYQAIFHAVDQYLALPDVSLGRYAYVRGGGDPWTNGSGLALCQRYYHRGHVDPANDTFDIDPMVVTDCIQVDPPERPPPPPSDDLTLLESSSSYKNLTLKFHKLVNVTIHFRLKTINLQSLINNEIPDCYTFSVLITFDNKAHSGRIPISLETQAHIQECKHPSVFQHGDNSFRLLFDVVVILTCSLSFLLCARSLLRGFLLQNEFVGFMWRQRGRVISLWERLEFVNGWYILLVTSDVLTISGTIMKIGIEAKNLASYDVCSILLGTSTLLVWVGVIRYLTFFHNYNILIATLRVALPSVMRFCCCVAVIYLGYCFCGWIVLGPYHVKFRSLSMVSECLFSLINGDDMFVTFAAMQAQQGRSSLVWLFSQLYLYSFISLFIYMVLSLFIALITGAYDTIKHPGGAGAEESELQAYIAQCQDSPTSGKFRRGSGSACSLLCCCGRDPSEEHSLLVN

| Structure (SMILES) | Qpatch Assay TRPML1 agonism Current fold increase Mean ± SEM (n) ([1]; 0.3 μM compound) | Qpatch Assay TRPML1 agonism Current fold increase Mean ± SEM (n) ([1]; 3.0 μM compound) | Qpatch Assay TRPML1 agonism Current fold increase Mean ± SEM (n) ([1]; 30 μM compound) | EC50 [2] [nM] |
| --- | --- | --- | --- | --- |
| CN(C)S(=O)(=O)c1ccc(S(=O)(=O)NC2CCCCC2N2CCC(Oc3ccccc3)CC2)cc1 (racemic) [Example 57, N1,N1-dimethyl-N4-[2-(4-phenoxypiperidin-1-yl)cyclohexyl]benzene-1,4-disulfonamide] | 0.39 ± 0.14 (2) | 0.86 ± 0.68 (2) | 4.3 ± 2.2 (2) | 3000 |
| CN(C)S(=O)(=O)c1ccc(S(=O)(=O)Nc2ccccc2N2CCCCC2)cc1 [Example 6, N1,N1-dimethyl-N4-[2-(piperidin-1-yl)phenyl]benzene-1,4-disulfonamide] | 1.0 ± 0.77 (3) | 32.7 ± 8.9 (3) |  | 1700 |
| CN(C)S(=O)(=O)c1ccc(S(=O)(=O)Nc2ccccc2N2CCN(C(=O)OC(C)(C)C)CC2)cc1 [Example 13, tert-butyl 4-{2-[4-(dimethylsulfamoyl)benzenesulfonamido]phenyl}piperazine-1-carboxylate] | 13.5 ± 4.8 (4) | 208 ± 15.7 (4) | 244 ± 27.6 (4) | 2100 |
| CN(C)S(=O)(=O)c1ccc(S(=O)(=O)Nc2ccccc2N2CCC(Oc3ccccn3)CC2)cc1 [Example 75, N1,N1-dimethyl-N4-{2-[4-(pyridin-2-yloxy)piperidin-1-yl]phenyl}benzene-1,4-disulfonamide] | 310 ± 147 (4) | 435 ± 172 (4) | 603 ± 155 (3) | 1600 |
| CN(C)S(=O)(=O)c1ccc(S(=O)(=O)Nc2ccccc2N2CCC(C(=O)OC(C)(C)C)CC2)cc1 [Example 76, f-butyl 1-{2-[4-(dimethylsulfamoyl)benzenesulfonamido]phenyl}piperidine-4-carboxylate] | 35.6 ± 26.7 (3) | 38.5 ± 24.8 (2) | 52.7 ± 36.3 (2) | 1300 |
| CN(C)S(=O)(=O)c1ccc(S(=O)(=O)Nc2ccccc2N2CCC(Oc3cnccn3)CC2)cc1 [Example 77, N1,N1-dimethyl-N4-{2-[4-(pyrazin-2-yloxy)piperidin-1-yl]phenyl} benzene-1,4-disulfonamide] | 74.4 ± 13.8 (3) | 167 ± 10.7 (3) | 168 ± 9.8 (3) | 1700 |
